The structures appear in SMILES notation.

Here are results for two compounds from patent US20250127770A1, “FORMULATIONS OF RADIPRODIL” (GRIN Therapeutics, Inc., priority 2021, published 2025).

A short description of data set [1]: Dissolution test, USPII paddle apparatus, 0.5% sodium lauryl sulphate solution in water. It counts as physicochemical. The conditions noted are these: without reconstitution in SYRSPEND SF and water prior to the test; FIG. 2. The method, then:
This study summarizes dissolution experiments preformed on the radiprodil drug substance and on the drug product including two drug loadings with and without reconstitution in SYRSPEND® and water prior to the dissolution test.
All dissolution experiments were performed on six vessels and the comparative curves were plotted using the average of them.
Some dissolution experiments were performed using prior to the dissolution a reconstitution in Syrpend® and water. In that case, the reconstitution was prepared and let under stirring for 1 night prior to the dissolution test. In order to mimic the clinical pharmacy manual, an additional test was performed with an extemporaneous suspension (15 min under stirring prior to the dissolution).
Dissolution and high performance liquid chromatography (HPLC) parameters used in the experiments are provided below in Tables […] and 12, respectively.
Radiprodil, as the dihydrate and Form A, as well as Form A containing granules (1% and 10% as described above) and blends of dihydrate and Form A (1% and 10% blends of dihydrate form and Form A) were submitted to dissolution tests in sodium lauryl sulfate (0.5% in water). […]

The nature of data set [2]: Stability study of radiprodil solid forms (dihydrate vs anhydrous form A). The conditions noted are these: in presence of water. The format is physicochemical.

With `O=C(Nc1ccc2[nH]c(=O)oc2c1)C(=O)N1CCC(Cc2ccc(F)cc2)CC1` [dihydrate form, Radiprodil], in data set [1], the Dissolution profile result is listed as “more rapid in aqueous media than the one of anhydrous form A”.

As for `O=C(Nc1ccc2[nH]c(=O)oc2c1)C(=O)N1CCC(Cc2ccc(F)cc2)CC1` (single isomer, unassigned) [anhydrous form A, Radiprodil], the “Stability of solid form” value in data set [2] is on record as “more stable than the dihydrate even in presence of water”.
